The values that follow come from patent publication US10584303B2, “Stabilization of isothiazolones in aqueous compositions” (DDP Specialty Electronic Materials US, Inc., priority 2014, dated 2020).

The structures appear in SMILES notation. Like-named read-outs stand apart in the source and are kept apart here.

Data set [1] can be described thus: Stability of MIT: 25% amine and 10 ppm MIT (HPLC). As to conditions: extremely high ratios of amine:isothiazolone (25% amine, 10 ppm MIT); room temperature and 40° C.
Procedure: (§1) The MWF samples dosed with biocide were analyzed for active level by high pressure liquid chromatography (HPLC) at time 0. The samples were then vortexed and split into a sample that was aged at room temperature and a sample that was aged at 40° C. Each week an aliquot of the aged samples was evaluated by HPLC for the level of active remaining. Samples where no active was found for two consecutive weeks were no longer analyzed.
For data set [2] the following is noted: 168 h.
Procedure: as §1

As for `CCC(O)CN(CCO)CC(O)CC` (stereo not drawn) [Amine D, N,N-bis(2-hydroxybutyl)-2-amino ethanol], in data set [1], the “stability of MIT compared with other amines” value is listed as “much better stability”.

On to `NCCO` [Amine F, 2-aminoethanol, reference compound], for which the “remaining active ingredient MIT” value in data set [2] was determined as 0 wt % and the “remaining active ingredient MIT” value (336 h) is 108 wt %.

In the case of `CC(O)CN(CC(C)O)CC(C)O` (stereo not drawn) [Amine G, triisopropanol amine], the “remaining active ingredient MIT” value runs as follows: (336 h) 110 wt %; (504 h) 108 wt %.

As to `CCC(O)CN(CCO)CCO` (stereo not drawn) [Amine A, 1-[bis(hydroxylethyl)amino]-2-butanol], the “stability of MIT compared with other amines” value in data set [1] is recorded as “much better stability”.
